Source: US20110166297A1, “MOLECULARLY IMPRINTED SMART POLYMERS (MISPs)” (Sailo Nanotechnologies Ltd., priority 2008, published 2011)

Assay: Solubility of Erg-TAD-Py (dissolved concentration by HPLC)
Format: physicochemical

Structure (SMILES): CC(C)[C@@H](C)/C=C/[C@@H](C)C1CCC2C34C=CC5(C[C@@H](O)CC[C@]5(C)C3CC[C@]12C)n1c(=O)n(CCCc2ccc3ccc5cccc6ccc2c3c56)c(=O)n14 (some centres unmarked) [Erg-TAD-Py, Ergosterol-triazolinedione-pyrene]
- Concentration of dissolved Erg-TAD-Py (10% DMSO in serum (inactivated fetal calf serum)): 7800 ng/mL
- Concentration of dissolved Erg-TAD-Py (10% DMSO in water): 700 ng/mL
- Concentration of dissolved Erg-TAD-Py (30% DMSO in serum (inactivated fetal calf serum)): 8400 ng/mL
- Concentration of dissolved Erg-TAD-Py (30% DMSO in water): 6700 ng/mL
- Concentration of dissolved Erg-TAD-Py (50% DMSO in serum (inactivated fetal calf serum)): 6800 ng/mL
- Concentration of dissolved Erg-TAD-Py (50% DMSO in water): 6000 ng/mL
- Concentration at which ethanol dissolves Erg-TAD-Py: 50000 ng/mL
- Concentration at which ethanol dissolves Erg-TAD-Py (molar equivalent of 0.05 mg/ml): about 60 uM
